Structures can show the parent of a compound that is named as a salt.
Row | Compound | melting point
1 | O=C(NC(Cc1ccc(OCc2ccc(F)cc2)cc1)C(=O)O)c1cn2cc(-c3ccc(Cl)cc3)ccc2n1 (stereo not shown) [Example E7] | 267 °C
2 | O=C(CSc1nc2ccccc2s1)NC1(C(=O)O)Cc2ccc(-c3ccc(Cl)cc3)cc2C1 (stereo not shown) [Example B117, 2-{[(1,3-Benzothiazol-2-ylthio)acetyl]amino}-5-(4-chlorophenyl)indan-2-carboxylic acid] | 205 to 207 °C
3 | O=C(CSc1ccc2ccccc2c1)NC1(C(=O)O)Cc2ccc(-c3ccc(Cl)cc3)cc2C1 (stereo not shown) [Example B171, 5-(4-Chlorophenyl)-2-{[(2-naphthylthio)acetyl]amino)indan-2-carboxylic acid] | 223 to 225 °C
4 | O=C(N[C@@H](Cc1ccc(OCc2ccccc2)cc1)C(=O)O)c1cn2cc(-c3ccncc3)ccc2n1 [Example E21, O-Benzyl-N-[(6-(pyridine-4-yl)imidazo[1,2-a]pyridin-2-yl)carbonyl]tyrosine] | 268 °C
5 | COc1cccc(COc2ccc(C[C@H](NC(=O)c3cn4ccc(-c5ccc(Cl)cc5)cc4n3)C(=O)O)cc2)c1 [Example E61, N-{[7-(4-Chlorophenyl)imidazo[1,2-a]pyridin-2-yl]carbonyl)-O-(3-methoxybenzyl)tyrosine] | 239 to 240 °C
6 | O=C(NC(Cc1ccc(OCc2ccccc2)cc1)c1nnn[nH]1)c1cn2cc(-c3ccc(Cl)cc3)ccc2n1 (stereo not shown) [Example E14, N-[2-[4-(Benzyloxy)phenyl]-1-(1H-tetrazol-5-yl)ethyl]-6-(4-chlorophenyl)imidazo[1,2-a]pyridine-2-carboxamide] | 241 °C
7 | O=C(CCCSc1nc2ccccc2s1)NC1(C(=O)O)Cc2ccc(-c3ccc(Cl)cc3)cc2C1 (stereo not shown) [Example B168, 2-{[4-(1,3-Benzothiazol-2-ylthio)-butanoyl]amino}-5-(4-chlorophenyl)indan-2-carboxylic acid] | 210 to 212 °C
8 | O=C(N[C@@H](Cc1ccc(OCc2ccccc2)cc1)C(=O)O)c1cn2cc(-c3cccnc3)ccc2n1 [Example E20, O-Benzyl-N-[(6-(pyridin-3-yl)imidazo[1,2-a]pyridine-2-yl)carbonyl]tyrosine] | 244 °C
9 | O=C(Cc1ccc(OCc2ccc(F)cc2Cl)cc1)NC1(C(=O)O)Cc2ccc(-c3ccc(Cl)cc3)cc2C1 (stereo not shown) [Example B144, 2-[({4-[(2-Chloro-4-fluorobenzyl)oxy]phenyl}acetyl)amino]-5-(4-chlorophenyl)indan-2-carboxylic acid] | 200 to 201 °C
10 | Cc1cc2nc(C(=O)N[C@@H](Cc3ccc(OCc4ccccc4)cc3)C(=O)O)cn2cc1-c1ccc(Cl)cc1 [Example E35, O-Benzyl-N-{[6-(4-chlorophenyl)-7-methylimidazo[1,2-a]pyridin-2-yl]carbonyl}tyrosine] | 248 to 249 °C
11 | O=C(N[C@@H](Cc1ccc(OCc2ccc(Cl)cc2)cc1)C(=O)O)c1cc2ccc(-c3ccc(Cl)cc3)cc2o1 [Example C159, O-(4-Chlorobenzyl)-N-{[6-(4-chlorophenyl)-1-benzofuran-2-yl]carbonyl}tyrosine] | 195 °C
12 | Cc1c(C(=O)NC(Cc2ccc(OCc3ccc(F)cc3)cc2)C(=O)O)oc2cc(-c3ccc(Cl)cc3)ccc12 (racemic) [Example C117, N-{[6-(4-Chlorophenyl)-3-methyl-1-benzofuran-2-yl]carbonyl}-O-(4-fluorobenzyl)-DL-tyrosine] | 147 to 149 °C
13 | O=C(Cc1ccccn1)NC1(C(=O)O)Cc2ccc(-c3ccc(Cl)cc3)cc2C1 (stereo not shown) [Example B178, 5-(4-Chlorophenyl)-2-[(pyridin-2-ylacetyl)amino]indan-2-carboxylic acid] | 189 °C
14 | COc1cccc(COc2ccc(C[C@H](NC(=O)c3cc4cc(-c5ccc(Cl)cc5)ccc4s3)C(=O)O)cc2)c1 [Example C128, N-{[5-(4-Chlorophenyl)-1-benzothiophene-2-yl]carbonyl}-O-(3-methoxybenzyl)tyrosine] | 175 to 177 °C
15 | CC(C)(C)OC(=O)N[C@H](Cc1c[nH]c2ccccc12)C(=O)NC1(C(=O)O)Cc2ccc(-c3ccc(Cl)cc3)cc2C1 (stereo partly drawn) [Example B119, 2-{[N-(tert-Butoxycarbonyl)-D-tryptophyl]amino}-5-(4-chlorophenyl)indan-2-carboxylic acid] | 158 °C
16 | O=C(N[C@@H](Cc1ccc(OCc2ccccc2)cc1)C(=O)O)c1cn2cc(-c3ccc(Cl)cc3)cnc2n1 [Example E4, O-Benzyl-N-{[6-(4-chlorophenyl)imidazo[1,2-a]pyrimidin-2-yl]carbonyl}tyrosine] | 252 to 253 °C
17 | Cc1nc(COc2ccc(CC(=O)NC3(C(=O)O)Cc4ccc(-c5ccc(Cl)cc5)cc4C3)cc2)cs1 (stereo not shown) [Example B152] | 209 to 210 °C
18 | O=C(NC(Cc1ccc(OCc2ccc(C(F)(F)F)cc2)cc1)C(=O)O)c1cc2ccc(-c3ccc(Cl)cc3)cc2o1 (stereo not shown) [Example C162] | 203 °C
19 | O=C(NC(Cc1ccc(OCc2ccc(Cl)cc2)cc1)C(=O)O)c1cc2cc(C#Cc3ccccc3)ccc2s1 (stereo not shown) [Example C141, O-(4-Chlorolbenzyl)-N-{[5-(phenylethynyl)-1-benzothiophene-2-yl]carbonyl)tyrosine] | 216 to 221 °C

Row | Compound | melting point
20 | O=C(N[C@@H](Cc1ccc(OCc2ccccc2)cc1)C(=O)O)c1cn2ccc(C#Cc3ccccc3)cc2n1 [Example E58, O-Benzyl-N-{[7-(phenylethynyl)imidazo[1,2-a]pyridin-2-yl]carbonyl}tyrosine] | 243 °C (dec.)
21 | CCc1ccc(COc2ccc(C[C@H](NC(=O)c3cc4cc(-c5ccc(Cl)cc5)ccc4s3)C(=O)O)cc2)cc1 [Example C137, N-{[5-(4-Chlorophenyl)-1-benzothiophene-2-yl]carbonyl}-O-(4-ethylbenzyl)tyrosine] | 205 °C
22 | O=C(N[C@@H](Cc1ccc(OCc2ccc(C(F)(F)F)cc2)cc1)C(=O)O)c1cn2ccc(-c3ccc(Cl)cc3)cc2n1 [Example E66, N-{[7-(4-Chlorophenyl)imidazo[1,2-a]pyridin-2-yl]carbonyl}-O-[4-(trifluoromethyl)benzyl]tyrosine] | 263 °C
23 | COc1cccc(COc2ccc(C[C@H](NC(=O)c3cc4ccc(-c5ccc(Cl)cc5)cc4o3)C(=O)O)cc2)c1 [Example C155, N-{[6-(4-Chlorophenyl)-1-benzofuran-2-yl]carbonyl}-O-(3-methoxybenzyl)tyrosine] | 150 to 151 °C
24 | O=C(NC1(C(=O)O)Cc2ccc(-c3ccc(Cl)cc3)cc2C1)[C@@H](O)c1ccccc1 (stereo partly drawn) [Example B179, 5-(4-Chlorophenyl)-2-{[(2S)-2-hydroxy-2-phenylacetyl]amino}indan-2-carboxylic acid] | 156 °C
25 | O=C(Cc1ccccc1OCc1ccccc1)NC1(C(=O)O)Cc2ccc(-c3ccc(Cl)cc3)cc2C1 (stereo not shown) [Example B126, 2-({[2-(Benzyloxy)phenyl]acetyl}amino)-5-(4-chlorophenyl)indan-2-carboxylic acid] | 245 °C
26 | Cc1cccc(C)c1-c1ccc2c(c1)CC(NC(=O)Cc1ccc(OCc3ccc(F)cc3)cc1)(C(=O)O)C2 (stereo not shown) [Example B160, 5-(2,6-Dimethylphenyl)-2-[({4-[(4-fluorobenzyl)oxy]phenyl}acetyl)amino]indan-2-carboxylic acid] | 210 to 212 °C
27 | O=C(CC1CCN(C(=O)c2ccc(F)cc2)CC1)NC1(C(=O)O)Cc2ccc(-c3ccc(Cl)cc3)cc2C1 (stereo not shown) [Example B166, 5-(4-Chlorophenyl)-2-({[1-(4-fluorobenzoyl)piperidin-4-yl]acetyl}amino)indan-2-carboxylic acid] | 242 °C
28 | Cc1cccc(COc2ccc(C[C@H](NC(=O)c3cc4ccc(-c5ccc(Cl)cc5)cc4o3)C(=O)O)cc2)c1 [Example C154, N-{[6-(4-Chlorophenyl)-1-benzofuran-2-yl]carbonyl}-O-(3-methylbenzyl)tyrosine] | 157 to 158 °C
29 | CCc1ccc(COc2ccc(C[C@H](NC(=O)c3cc4ccc(-c5ccc(Cl)cc5)cc4o3)C(=O)O)cc2)cc1 [Example C161, N-{[6-(4-Chlorophenyl)-1-benzofuran-2-yl]carbonyl)-O-(4-ethylbenzyl)tyrosine] | 194 °C
30 | O=C(Cc1ccc(OCc2cccc(C(=O)O)c2)cc1)NC1(C(=O)O)Cc2ccc(-c3ccc(Cl)cc3)cc2C1 (stereo not shown) [Example B188, 2-[({4-[(3-Carboxybenzyl)oxy]phenyl}acetyl)amino]-5-(4-chlorophenyl)indan-2-carboxylic acid] | 220 to 222 °C
31 | O=C(CCSc1ccc2ccccc2c1)NC1(C(=O)O)Cc2ccc(-c3ccc(Cl)cc3)cc2C1 (stereo not shown) [Example B172, 5-(4-Chlorophenyl)-2-{[3-(2-naphthylthio)propanoyl]amino}indan-2-carboxylic acid] | 215 °C
32 | O=C(Cc1ccc(OCc2ccc(F)cc2)cc1)NC1(C(=O)O)Cc2ccc(-c3cccc(Cl)c3)cc2C1 (stereo not shown) [Example B185, 5-(3-Chlorophenyl)-2-[({4-[(4-fluorobenzyl)oxy]phenyl}acetyl)amino]indan-2-carboxylic acid] | 173 to 174 °C
33 | CC(C)Oc1ccc(-c2ccc3sc(C(=O)N[C@@H](Cc4ccc(OCc5ccc(F)cc5)cc4)C(=O)O)cc3c2)cc1 [Example C130, O-(4-Fluorobenzyl)-N-{[5-(4-isopropoxyphenyl)-1-benzothiophene-2-yl]carbonyl}tyrosine] | 204 to 205 °C
34 | N[C@H](Cc1c[nH]c2ccccc12)C(=O)NC1(C(=O)O)Cc2ccc(-c3ccc(Cl)cc3)cc2C1 (stereo partly drawn) (as salt: hydrochloride) [Example B122, 5-(4-Chlorophenyl)-2-(D-tryptophylamino)indan-2-carboxylic acid hydrochloride] | 168 to 170 °C
35 | O=C(NC1(C(=O)O)Cc2ccc(-c3ccc(Cl)cc3)cc2C1)c1ccc2ncsc2c1 (stereo not shown) [Example B137, 2-[(1,3-Benzothiazol-6-ylcarbonyl)amino]-5-(4-chlorophenyl)indan-2-carboxylic acid] | 210 °C
36 | O=C(Cc1ccc(OCc2ccccc2F)cc1)NC1(C(=O)O)Cc2ccc(-c3ccc(Cl)cc3)cc2C1 (stereo not shown) [Example B141, 5-(4-Chlorophenyl)-2-[({4-[(2-fluorobenzyl)oxy]phenyl}acetyl)amino]indan-2-carboxylic acid] | 232 to 233 °C
37 | CC(C)(C)OC(=O)NCCC(=O)NC1(C(=O)O)Cc2ccc(-c3ccc(Cl)cc3)cc2C1 (stereo not shown) [Example B118, 2-{[3-(tert-Butoxycarbonylamino)propionyl]amino}-5-(4-chlorophenyl) indan-2-carboxylic acid] | 212 to 214 °C

Reference: patent publication US20100130737A1, “Regulating Agent of GPR34 Receptor Function” (TAKEDA PHARMACEUTICAL COMPANY LIMITED, priority 2005, published 2010)
